Structures can show the parent of a compound that is named as a salt.
Key:
Format in all cases: in vivo
[1] = test system: Portulaca oleracea; assay: Field trial with soybeans, herbicidal action; conditions: 8–10 leaf stage, scoring 32 days after application
Procedure: (§1) Transgenic soybean plants with a resistance to one or more herbicides (A) together with typical weed plants were grown in the open on 2×5 m plots under natural field conditions; alternatively, weed infestation occurred naturally when the soybean plants were grown.
(§2) […] The damage to, and the development of, all aerial parts of the plants was recorded. Scoring was done on the basis of a percentage sale (100% action all plants destroyed; 50% action=50% of the plants and green parts of the plants destroyed; 0% action=no recognizable effect=like control plot. The mean of the score values of in each case 4 plots was calculated.

[2] = test system: Pharbitis purpureum; assay: Field trial with soybeans, herbicidal action; conditions: 3-leaf stage, scoring 42 days after application
Procedure: as §1
(§3) 2, 4, 6 and 8 weeks after the application, the herbicidal activity of the active substances or active substance mixtures was scored visually with reference to the treated plots in comparison to untreated control plots. The damage to, and the development of, all aerial parts of the plants was recorded. Scoring was done on the basis of a percentage sale (100% action all plants destroyed; 50% action=50% of the plants and green parts of the plants destroyed; 0% action=no recognizable effect=like control plot. The mean of the score values of in each case 4 plots was calculated.

[3] = test system: Soja LL (glufosinate-tolerant soybean culture); assay: Field trial with soybeans, tolerance by crop plants
Procedure: as §1, §3

[4] = test system: Sorghum sudaneus; assay: Field trial with soybeans, herbicidal action; conditions: 4-leaf stage, scoring 28 days after application
Procedure: as §1, §3

[5] = test system: Eleusine indica; assay: Field trial with soybeans, herbicidal action; conditions: 3-leaf stage, scoring 42 days after application
Procedure: as §1, §3

[6] = test system: Abutilon theophrasti; assay: Field trial with soybeans, herbicidal action; conditions: 4-leaf stage, scoring 42 days after application
Procedure: as §1, §3

[7] = test system: Sida rombifolia; assay: Field trial with soybeans, herbicidal action; conditions: 4-leaf stage, scoring 43 days after application
[8] = test system: Digitalis abscendens; assay: Field trial with soybeans, herbicidal action; conditions: application middle-end of stocking, scoring 3 weeks after application
Procedure: as §1, §2

[9] = test system: Equisetum arvense; assay: Field trial with soybeans, herbicidal action; conditions: 4–6 leaf stage, scoring 3 weeks after application
Procedure: as §1, §2

[10] = test system: Xanthium orientalis; assay: Field trial with soybeans, herbicidal action; conditions: 5-leaf stage, scoring 28 days after application
Procedure: as §1, §3

[11] = Table 8, 50 g of a.s./ha, 4-leaf stage, scoring 43 days after application

## C#CCN1C(=O)COc2cc(F)c(N3C(=O)C4=C(CCCC4)C3=O)cc21 [(B1.15), flumioxazin]
[1]; 100 g of a.s./ha
  Herbicidal action (%) against Portulaca oleracea: 65%
[2]; 12.5 g of a.s./ha
  Herbicidal action (%) against Pharbitis purpureum: 30%
[3]; Table 5, 100 g of a.s./ha, 8–10 leaf stage, scoring 32 days after application
  Herbicidal action (%) against Soja LL: 0%
[3]; Table 7, 12.5 g of a.s./ha, 3-leaf stage, scoring 42 days after application
  Herbicidal action (%) against Soja LL: 0%

## COC(=O)c1sccc1S(=O)(=O)NC(=O)Nc1nc(C)nc(OC)n1 [(B2.3), thifensulfuron-methyl]
[1]; 5 g of a.s./ha
  Herbicidal action (%) against Portulaca oleracea: 45%
[4]; 15 g of a.s./ha
  Herbicidal action (%) against Sorghum sudaneus: 13%
[3]; in vivo
  Herbicidal action (%) against Soja LL: 3%

## CCc1cnc(C2=NC(C)(C(C)C)C(=O)N2)c(C(=O)O)c1 (centres unmarked) [(A3.2), imazethapyr]
[5]; 50 g of a.s./ha
  Herbicidal action (%) against Eleusine indica: 27%
[3]; in vivo
  Herbicidal action (%) against Soja LL: 0%

## O=C(O)c1cc(Oc2ccc(C(F)(F)F)cc2Cl)ccc1[N+](=O)[O-] [(B2.8), acifluorfen]
[4]; 360 g of a.s./ha
  Herbicidal action (%) against Sorghum sudaneus: 15%

## CCc1cccc(C)c1N(C(=O)CCl)C(C)COC (centres unmarked) [(B1.5), metolachlor]
[1]; 2240 g of a.s./ha
  Herbicidal action (%) against Portulaca oleracea: 30%
[3]; Table 5, 2240 g of a.s./ha, 8–10 leaf stage, scoring 32 days after application
  Herbicidal action (%) against Soja LL: 0%

## COCC(C)N(C(=O)CCl)c1c(C)csc1C (centres unmarked) [(B1.7), dimethenamid]
[6]; 1500 g of a.s./ha
  Herbicidal action (%) against Abutilon theophrasti: 30%

## CC(C)N1C(=O)c2ccccc2NS1(=O)=O [(B2.2), bentazone]
[2]; 480 g of a.s./ha
  Herbicidal action (%) against Pharbitis purpureum: 35%
[3]; Table 7, 480 g of a.s./ha, 3-leaf stage, scoring 42 days after application
  Herbicidal action (%) against Soja LL: 0%

## COCc1cnc(C2=NC(C)(C(C)C)C(=O)N2)c(C(=O)O)c1 (centres unmarked) [(A3.5), imazamox]
[2]; 30 g of a.s./ha
  Herbicidal action (%) against Pharbitis purpureum: 40%
[3]; Table 7, 30 g of a.s./ha, 3-leaf stage, scoring 42 days after application
  Herbicidal action (%) against Soja LL: 0%

## CCOC(=O)[C@@H](C)Oc1ccc(Oc2nc3ccc(Cl)cc3o2)cc1 [(B4.2), fenoxaprop-P-ethyl]
[5]; 25 g of a.s./ha
  Herbicidal action (%) against Eleusine indica: 30%
[5]; 50 g of a.s./ha
  Herbicidal action (%) against Eleusine indica: 70%
[3]; Table 6, 25 g of a.s./ha, 3-leaf stage, scoring 42 days after application
  Herbicidal action (%) against Soja LL: 0%
[3]; Table 6, 50 g of a.s./ha, 3-leaf stage, scoring 42 days after application
  Herbicidal action (%) against Soja LL: 0%

## Cc1cc(C)nc(NC(=O)NS(=O)(=O)c2ccccc2C(=O)OC2COC2)n1 [(B2.15), oxasulfuron]
[7]; 50 g of a.s./ha
  Herbicidal action (%) against Sida rombifolia: 60%
[3]; [11]
  Herbicidal action (%) against Soja LL: 0%

## Cc1ccn2nc(S(=O)(=O)Nc3c(F)cccc3F)nc2n1 [(B1.6), flumetsulam]
[6]; 35 g of a.s./ha
  Herbicidal action (%) against Abutilon theophrasti: 52%

## CP(=O)(O)CCC(N)C(=O)O (centres unmarked) [(A1.2), glufosinate-monoammonium salt]
[8]; 1200 g of a.s./ha
  Herbicidal action (%) against Digitalis abscendens: 36%
[1]; 250 g of a.s./ha
  Herbicidal action (%) against Portulaca oleracea: 20%
[1]; 500 g of a.s./ha
  Herbicidal action (%) against Portulaca oleracea: 65%
[9]; 400 g of a.s./ha
  Herbicidal action (%) against Equisetum arvense: 70%
[7]; 150 g of a.s./ha
  Herbicidal action (%) against Sida rombifolia: 25%
[7]; 300 g of a.s./ha
  Herbicidal action (%) against Sida rombifolia: 65%
[2]; 200 g of a.s./ha
  Herbicidal action (%) against Pharbitis purpureum: 35%
[2]; 400 g of a.s./ha
  Herbicidal action (%) against Pharbitis purpureum: 72%
[10]; 300 g of a.s./ha
  Herbicidal action (%) against Xanthium orientalis: 96%
[10]; 500 g of a.s./ha
  Herbicidal action (%) against Xanthium orientalis: 98%
[4]; 300 g of a.s./ha
  Herbicidal action (%) against Sorghum sudaneus: 15%
[4]; 500 g of a.s./ha
  Herbicidal action (%) against Sorghum sudaneus: 65%
[6]; 330 g of a.s./ha
  Herbicidal action (%) against Abutilon theophrasti: 45%
[6]; 500 g of a.s./ha
  Herbicidal action (%) against Abutilon theophrasti: 95%
[5]; 200 g of a.s./ha
  Herbicidal action (%) against Eleusine indica: 40%
[5]; 500 g of a.s./ha
  Herbicidal action (%) against Eleusine indica: 80%
[3]; Table 5, 250 g of a.s./ha, 8–10 leaf stage, scoring 32 days after application
  Herbicidal action (%) against Soja LL: 0%
[3]; Table 5, 500 g of a.s./ha, 8–10 leaf stage, scoring 32 days after application
  Herbicidal action (%) against Soja LL: 0%
[3]; Table 6, 200 g of a.s./ha, 3-leaf stage, scoring 42 days after application
  Herbicidal action (%) against Soja LL: 0%
[3]; Table 6, 500 g of a.s./ha, 3-leaf stage, scoring 42 days after application
  Herbicidal action (%) against Soja LL: 0%
[3]; Table 7, 200 g of a.s./ha, 3-leaf stage, scoring 42 days after application
  Herbicidal action (%) against Soja LL: 0%
[3]; Table 7, 400 g of a.s./ha, 3-leaf stage, scoring 42 days after application
  Herbicidal action (%) against Soja LL: 0%
[3]; Table 8, 150 g of a.s./ha, 4-leaf stage, scoring 43 days after application
  Herbicidal action (%) against Soja LL: 0%
[3]; Table 8, 300 g of a.s./ha, 4-leaf stage, scoring 43 days after application
  Herbicidal action (%) against Soja LL: 0%

## CCCCCOC(=O)COc1cc(N2C(=O)C3=C(CCCC3)C2=O)c(F)cc1Cl [(B2.7), flumiclorac-pentyl]
[7]; 50 g of a.s./ha
  Herbicidal action (%) against Sida rombifolia: 40%
[3]; [11]
  Herbicidal action (%) against Soja LL: 0%

## CCOc1nc(F)cc2nc(S(=O)(=O)Nc3c(Cl)cccc3C(=O)OC)nn12 [(B2.12), cloransulam-methyl]
[1]; 18 g of a.s./ha
  Herbicidal action (%) against Portulaca oleracea: 73%
[2]; 40 g of a.s./ha
  Herbicidal action (%) against Pharbitis purpureum: 45%
[3]; Table 5, 18 g of a.s./ha, 8–10 leaf stage, scoring 32 days after application
  Herbicidal action (%) against Soja LL: 2%
[3]; Table 7, 40 g of a.s./ha, 3-leaf stage, scoring 42 days after application
  Herbicidal action (%) against Soja LL: 0%

## COc1cc(Cl)nc(NC(=O)NS(=O)(=O)c2ccccc2C(=O)O)n1 [(B2.11), chlorimuron]
[5]; 12.5 g of a.s./ha
  Herbicidal action (%) against Eleusine indica: 5%
[3]; Table 6, 12.5 g of a.s./ha, 3-leaf stage, scoring 42 days after application
  Herbicidal action (%) against Soja LL: 0%

## CCc1cccc(CC)c1N(COC)C(=O)CCl [(B1.8), alachlor]
[8]; 2580 g of a.s./ha
  Herbicidal action (%) against Digitalis abscendens: 48%

## CCCN(CCC)c1c([N+](=O)[O-])cc(C(F)(F)F)cc1[N+](=O)[O-] [(B1.1), trifluralin]
[10]; 960 g of a.s./ha
  Herbicidal action (%) against Xanthium orientalis: 0%

## CCOC(=O)C(C)OC(=O)c1cc(Oc2ccc(C(F)(F)F)cc2Cl)ccc1[N+](=O)[O-] (centres unmarked) [(B2.5), lactofen]
[9]; 150 g of a.s./ha
  Herbicidal action (%) against Equisetum arvense: 0%
[9]; 300 g of a.s./ha
  Herbicidal action (%) against Equisetum arvense: 0%
[6]; 2240 g of a.s./ha
  Herbicidal action (%) against Abutilon theophrasti: 20%

## CON(C)C(=O)Nc1ccc(Cl)c(Cl)c1 [(B1.9), linuron]
[4]; 750 g of a.s./ha
  Herbicidal action (%) against Sorghum sudaneus: 15%
